Assay results: patent US8207142B2, “Inhibitor of DNA methylation” (priority 2001, dated 2012)

Test system: T24 cells
Experiment: Zebularine metabolites in T24 cells (SAX-10 HPLC)
Format: in vitro ADME, human
Details: 6 hr incubation
Protocol: ZB, ZB-MP, ZB-DP and ZB-TP correspond, respectively, to Zebularine, 5′-mono, 5′-di- and 5′-triphosphate metabolites. There are two unidentified metabolites, indicated by the symbols ?1 and ?2.
Zebularine metabolites were identified after incubation of human bladder cancer cells (T24) in DMEM+10% FCS medium with antibiotics. Zebularine (10 μM, 1 μCi), specific activity 200 DPM/pmole was used in these experiments. At the end of the incubation, cells were extracted with 60% methanol and aliquots were analyzed by SAX-10 HPLC using a methanolwater gradient as follows: 1-5 min 1% MeOH, 5-25 min gradient to 25% MeOH, 25-35 min isocratic with 25% MeOH and back to 1% MeOH after 10 min. The phosphorylated metabolites were identified by comparison with authentic synthetic standards. Using this methodology formation of metabolites as a function of concentration after a 6 hr incubation period was investigated (FIG. 17). The major metabolite formed was the 5′-triphosphate.

O=c1ncccn1[C@@H]1O[C@H](CO)[C@@H](O)[C@H]1O [Zebularine, 1-β-ribofuranosyl-1,2-dihydropyrimidin-2-one]
major metabolite formed: 5′-triphosphate
